Experimental data as given in US11208400B2, “Substituted 6-(1H-pyrazol-1-yl)pyrimidin-4-amine derivatives and uses thereof” (Bayer Aktiengesellschaft, priority 2016, dated 2021).

Each compound was assayed against T1, human Npt2a (Homo sapiens, UniProt Q06495) (assay: Npt2a activity cell based assay, membrane potential dye, CHO T-REx hNpt2a cells). Conditions: doxycycline-induced, depolarization by sodium phosphate influx, average or median values if tested more than once.
T1 construct: expressed in transfected cells
T1 sequence (Q06495 1-639): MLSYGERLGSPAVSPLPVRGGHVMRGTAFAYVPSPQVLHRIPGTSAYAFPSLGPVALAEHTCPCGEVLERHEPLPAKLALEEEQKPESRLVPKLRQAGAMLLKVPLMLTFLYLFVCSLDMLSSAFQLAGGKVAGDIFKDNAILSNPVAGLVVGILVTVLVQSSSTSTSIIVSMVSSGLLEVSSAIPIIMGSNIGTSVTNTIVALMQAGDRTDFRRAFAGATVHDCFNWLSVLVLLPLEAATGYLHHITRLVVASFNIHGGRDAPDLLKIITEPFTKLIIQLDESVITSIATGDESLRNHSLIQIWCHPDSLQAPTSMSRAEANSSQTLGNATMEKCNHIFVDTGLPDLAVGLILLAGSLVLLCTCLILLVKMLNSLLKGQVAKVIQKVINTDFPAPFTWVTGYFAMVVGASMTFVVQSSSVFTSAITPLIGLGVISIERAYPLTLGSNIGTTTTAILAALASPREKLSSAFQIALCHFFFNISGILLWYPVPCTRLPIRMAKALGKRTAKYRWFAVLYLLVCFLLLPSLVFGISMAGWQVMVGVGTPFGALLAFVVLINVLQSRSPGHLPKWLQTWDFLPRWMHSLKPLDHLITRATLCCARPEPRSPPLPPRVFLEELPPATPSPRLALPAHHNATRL
Summary of the method: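 Cells were doxycycline-induced CHO T-REx hNpt2a, dye-loaded and pretreated 5 min at RT with 1 nM–50 μM compound in Na-free pH 7.4 buffer. IC50 was fit to the post/pre-trigger fluorescence ratio.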

First: Cc1nn(-c2cc(Nc3c(Cl)c(-c4ccc(F)cc4F)nn3C)ncn2)c(C)c1Cl [Example 48, N-[4-chloro-3-(2,4-difluorophenyl)-1-methyl-1H-pyrazol-5-yl]-6-(4-chloro-3,5-dimethyl-1H-pyrazol-1-yl)pyrimidin-4-amine]
Second: Cc1nn(-c2cc(Nc3c(Cl)c(-c4ccc(F)cc4)nn3C)ncn2)c(C)c1C(C)(C)O [Example 277, 2-[1-(6-{[4-chloro-3-(4-fluorophenyl)-1-methyl-1H-pyrazol-5-yl]amino}pyrimidin-4-yl)-3,5-dimethyl-1H-pyrazol-4-yl]propan-2-ol]
The IC50 of the first is 2.1-fold higher: 310 nM for the first, 150 nM for the second. The second is the more potent here.

First: Cc1cc(C)n(-c2cc(Nc3[nH]nc(-c4ccc(F)cc4)c3Cl)ncn2)n1 [Example 14, N-[4-chloro-3-(4-fluorophenyl)-1H-pyrazol-5-yl]-6-(3,5-dimethyl-1H-pyrazol-1-yl)pyrimidin-4-amine]
Second: CCc1c(Nc2cc(-n3nc(C)cc3C)ncn2)n[nH]c1-c1ccc(Cl)cc1 [Example 21, N-[5-(4-chlorophenyl)-4-ethyl-1H-pyrazol-3-yl]-6-(3,5-dimethyl-1H-pyrazol-1-yl)pyrimidin-4-amine]
The IC50 of the first is 2-fold lower: 70 nM for the first, 140 nM for the second.

Going from CC(=O)Oc1c(C)nn(-c2cc(Nc3c(C)c(-c4ccc(F)cc4)nn3CC3CC3)ncn2)c1C [Example 497, 1-(6-{[1-(cyclopropylmethyl)-3-(4-fluorophenyl)-4-methyl-1H-pyrazol-5-yl]amino}pyrimidin-4-yl)-3,5-dimethyl-1H-pyrazol-4-yl acetate] to CC(=O)Cc1c(C)nn(-c2cc(Nc3c(C)c(-c4ccc(F)cc4)nn3CC3CC3)ncn2)c1C [Example 490, 1-[1-(6-{[1-(cyclopropylmethyl)-3-(4-fluorophenyl)-4-methyl-1H-pyrazol-5-yl]amino}pyrimidin-4-yl)-3,5-dimethyl-1H-pyrazol-4-yl]propan-2-one], the IC50 rises from 3 nM to 6 nM (2-fold). The first is the more potent here.

Going from Cc1c(-c2ccc(C#N)cc2)nn(C)c1Nc1cc(-n2[nH]c3c(c2=O)CCCC3)ncn1 [Example 472, 4-(1,4-dimethyl-5-{[6-(3-oxo-1,3,4,5,6,7-hexahydro-2H-indazol-2-yl)pyrimidin-4-yl]amino}-1H-pyrazol-3-yl)benzonitrile] to COC(C)c1c(C)nn(-c2cc(Nc3c(C)c(-c4ccc(C#N)cc4)nn3C)ncn2)c1C (single isomer, unassigned) [Example 339, 4-{5-[(6-{4-[1-methoxyethyl]-3,5-dimethyl-1H-pyrazol-1-yl}pyrimidin-4-yl)amino]-1,4-dimethyl-1H-pyrazol-3-yl}benzonitrile], the IC50 falls from 880 nM to 8 nM (110-fold).

First: Cc1cc(C(F)F)n(-c2cc(Nc3c(C)c(-c4ccc(F)cc4)nn3C)ncn2)n1 [Example 70, 6-[5-(difluoromethyl)-3-methyl-1H-pyrazol-1-yl]-N-[3-(4-fluorophenyl)-1,4-dimethyl-1H-pyrazol-5-yl]pyrimidin-4-amine]
Second: COCCn1nc(-c2ccc(F)cn2)c(C)c1Nc1cc(-n2nc(C)cc2C(F)F)ncn1 [Example 543, 6-[5-(difluoromethyl)-3-methyl-1H-pyrazol-1-yl]-N-[3-(5-fluoropyridin-2-yl)-1-(2-methoxyethyl)-4-methyl-1H-pyrazol-5-yl]pyrimidin-4-amine]
The IC50 of the first is 13-fold lower: 36 nM for the first, 480 nM for the second. The first is the more potent here.

Compared with CCc1c(-c2ccc(F)cc2)nn(Cc2nnnn2C)c1Nc1cc(-n2nc(C)cc2C)ncn1 [Example 391, 6-(3,5-dimethyl-1H-pyrazol-1-yl)-N-{4-ethyl-3-(4-fluorophenyl)-1-[(1-methyl-1H-tetrazol-5-yl)methyl]-1H-pyrazol-5-yl}pyrimidin-4-amine], CCc1c(Nc2cc(-n3nc(C)c(Cl)c3C)ncn2)nn(C)c1-c1ccc(F)cc1 [Example 99, 6-(4-chloro-3,5-dimethyl-1H-pyrazol-1-yl)-N-[4-ethyl-5-(4-fluorophenyl)-1-methyl-1H-pyrazol-3-yl]pyrimidin-4-amine] is 3.8-fold higher in IC50: 13 nM for the first, 50 nM for the second.

First: COC(=O)c1ccc(-c2c(C)c(Nc3cc(-n4nc(C)cc4C)ncn3)nn2C)cc1 [Example 122, methyl 4-(3-{[6-(3,5-dimethyl-1H-pyrazol-1-yl)pyrimidin-4-yl]amino}-1,4-dimethyl-1H-pyrazol-5-yl)benzoate]
Second: Cc1nn(-c2cc(Nc3nn(C)c(-c4ccc(F)cc4)c3C)ncn2)c(C)c1C(O)CC(C)C (stereo not shown) [Example 456, 1-[1-(6-{[5-(4-fluorophenyl)-1,4-dimethyl-1H-pyrazol-3-yl]amino}pyrimidin-4-yl)-3,5-dimethyl-1H-pyrazol-4-yl]-3-methylbutan-1-ol]
The IC50 of the first is 1.6-fold lower: 25 nM for the first, 41 nM for the second. The first is the more potent here.

First: Cc1nn(-c2cc(Nc3c(C)c(-c4ccc(C(F)F)nc4)nn3C)ncn2)c(C)c1F [Example 485, N-{3-[6-(difluoromethyl)pyridin-3-yl]-1,4-dimethyl-1H-pyrazol-5-yl}-6-(4-fluoro-3,5-dimethyl-1H-pyrazol-1-yl)pyrimidin-4-amine]
Second: Cc1nn(-c2cc(Nc3[nH]nc(-c4ccc(C#N)cc4)c3C)ncn2)c(C)c1F [Example 266, 4-(5-{[6-(4-fluoro-3,5-dimethyl-1H-pyrazol-1-yl)pyrimidin-4-yl]amino}-4-methyl-1H-pyrazol-3-yl)benzonitrile]
The IC50 of the first is 3.3-fold higher: 1350 nM for the first, 410 nM for the second. The second is the more potent here.

Compared with Cc1nn(-c2cc(Nc3c(Cl)c(-c4ccc(F)cc4)nn3C)ncn2)c(C(C)(C)O)c1Cl [Example 278, 2-[4-chloro-1-(6-{[4-chloro-3-(4-fluorophenyl)-1-methyl-1H-pyrazol-5-yl]amino}pyrimidin-4-yl)-3-methyl-1H-pyrazol-5-yl]propan-2-ol], CCOC(=O)c1c(C)nn(-c2cc(Nc3c(C)c(-c4ccc(F)cc4)nn3CCOC)ncn2)c1C [Example 528, ethyl 1-(6-{[3-(4-fluorophenyl)-1-(2-methoxyethyl)-4-methyl-1H-pyrazol-5-yl]amino}pyrimidin-4-yl)-3,5-dimethyl-1H-pyrazole-4-carboxylate] is 22-fold lower in IC50: 86 nM for the first, 4 nM for the second.

First: CCOC(=O)c1c(C)nn(-c2cc(Nc3c(OC)c(-c4ccc(F)cc4)nn3CC3CC3)ncn2)c1C [Example 319, ethyl 1-(6-{[1-(cyclopropylmethyl)-3-(4-fluorophenyl)-4-methoxy-1H-pyrazol-5-yl]amino}pyrimidin-4-yl)-3,5-dimethyl-1H-pyrazole-4-carboxylate]
Second: CCOC(=O)c1c(C)nn(-c2cc(Nc3c(C)c(-c4ccc(C(F)F)cc4)nn3CC3CC3)ncn2)c1C [Example 454, ethyl 1-[6-({1-(cyclopropylmethyl)-3-[4-(difluoromethyl)phenyl]-4-methyl-1H-pyrazol-5-yl}amino)pyrimidin-4-yl]-3,5-dimethyl-1H-pyrazole-4-carboxylate]
The IC50 of the first is 7.5-fold higher: 82 nM for the first, 11 nM for the second.

Going from Cc1nn(-c2cc(Nc3c(C)c(-c4ccc(F)cc4)nn3CC3CC3)ncn2)c(C)c1C(O)C1CC1 (single isomer, unassigned) [Example 420, cyclopropyl[1-(6-{[1-(cyclopropylmethyl)-3-(4-fluorophenyl)-4-methyl-1H-pyrazol-5-yl]amino}pyrimidin-4-yl)-3,5-dimethyl-1H-pyrazol-4-yl]methanol] to COc1ccc(-c2nn(CC3CC3)c(Nc3cc(-n4nc(C)c(Cl)c4C)ncn3)c2C)cc1 [Example 482, 6-(4-chloro-3,5-dimethyl-1H-pyrazol-1-yl)-N-[1-(cyclopropylmethyl)-3-(4-methoxyphenyl)-4-methyl-1H-pyrazol-5-yl]pyrimidin-4-amine], the IC50 rises from 24 nM to 52 nM (2.2-fold). The first is the more potent here.

Going from CCc1c(Nc2cc(-n3nc(C)c(C4(O)CCC4)c3C)ncn2)nn(C)c1-c1ccc(F)cc1 [Example 215, 1-[1-(6-{[4-ethyl-5-(4-fluorophenyl)-1-methyl-1H-pyrazol-3-yl]amino}pyrimidin-4-yl)-3,5-dimethyl-1H-pyrazol-4-yl]cyclobutanol] to CCc1c(Nc2cc(-n3nc(C)c(Cl)c3C)ncn2)nn(CC2CC2)c1-c1ccc(F)cc1 [Example 144, 6-(4-chloro-3,5-dimethyl-1H-pyrazol-1-yl)-N-[1-(cyclopropylmethyl)-4-ethyl-5-(4-fluorophenyl)-1H-pyrazol-3-yl]pyrimidin-4-amine], the IC50 rises from 250 nM to 520 nM (2.1-fold). The first is the more potent here.

Compared with Cc1cc(C)n(-c2cc(Nc3c(C)c(-c4ccncc4)nn3CC3CC3)ncn2)n1 [Example 350, N-[1-(cyclopropylmethyl)-4-methyl-3-(pyridin-4-yl)-1H-pyrazol-5-yl]-6-(3,5-dimethyl-1H-pyrazol-1-yl)pyrimidin-4-amine], Cc1ccc(-c2nn(CC3CC3)c(Nc3cc(-n4nc(C)cc4C)ncn3)c2C)cn1 [Example 529, N-[1-(cyclopropylmethyl)-4-methyl-3-(6-methylpyridin-3-yl)-1H-pyrazol-5-yl]-6-(3,5-dimethyl-1H-pyrazol-1-yl)pyrimidin-4-amine] is 2.1-fold higher in IC50: 1300 nM for the first, 2700 nM for the second. The first is the more potent here.

Going from Cc1c(-c2ccc(C#N)cc2)nn(CC2CC2)c1Nc1cc(-n2nc(C)c3ccncc32)ncn1 [Example 231, 4-[1-(cyclopropylmethyl)-4-methyl-5-{[6-(3-methyl-1H-pyrazolo[3,4-c]pyridin-1-yl)pyrimidin-4-yl]amino}-1H-pyrazol-3-yl]benzonitrile] to Cc1nn(-c2cc(Nc3c(C)c(-c4ccc(F)cn4)nn3CC3CC3)ncn2)c(C)c1Cl [Example 439, 6-(4-chloro-3,5-dimethyl-1H-pyrazol-1-yl)-N-[1-(cyclopropylmethyl)-3-(5-fluoropyridin-2-yl)-4-methyl-1H-pyrazol-5-yl]pyrimidin-4-amine], the IC50 rises from 2 nM to 39 nM (20-fold).
